Laboratory results reported in patent US20260258084A1, “New Peptides as Selective IL-23 Receptor Antagonists” (Sanofi, priority 2022, published 2026).
Values after ≈ are worked out from the molar mass of the structure shown. Read-outs that look alike come from different tables or passages of the source. Starred links: 1 amine or outer side, 2 acyl side, 3 side chain; linkers in the order of their positions; H or OH if unused. Positions of bridges follow the written chain, without caps; N, C: chain ends. Non-standard residues stand in square brackets, D forms with d. Residues, ends and D or L forms follow the SMILES beside them. *: point of attachment. X3 = CN(CCCCC(=O)N[C@@H](CS[*:2])C(=O)[*:1])[*:3]; Trp(7-Me) = Cc1cccc2c(C[C@H](N)C(=O)O)c[nH]c12; X1 = O=C(CCCCN[*:3])N[C@@H](CS[*:2])C(=O)[*:1]; αMeLys(Me2) = CN(C)CCCC[C@](C)(N)C(=O)O; 2Nal = N[C@@H](Cc1ccc2ccccc2c1)C(=O)O; d2Nal = N[C@H](Cc1ccc2ccccc2c1)C(=O)O; 3Pal = N[C@@H](Cc1cccnc1)C(=O)O; NMeN = CN[C@@H](CC(N)=O)C(=O)O; Thp = NC1(C(=O)O)CCOCC1; Me2NCH2CH2 = CN(C)CC*; Aib = CC(C)(N)C(=O)O; Ahx = NCCCCCC(=O)O; Ava = NCCCCC(=O)O; Sar = CNCC(=O)O

How the values were obtained:
[1] = molecular target: T1, human interleukin-23 receptor (recombinant human IL-23R-Fc chimera) (Homo sapiens, UniProt Q5VWK5); assay: Human ELISA IL23/IL23R (assay for specific human IL23R antagonists); type: binding; conditions: Table 10; read-out: Human ELISA IL23/IL23R IC50
T1 construct: Fc (IgG Fc fusion)
Procedure, shortened: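 Competition format: peptide dilutions compete for IL23R-Fc chimera (0.1 μg/ml final, 60 min, room temperature) binding to immobilized human IL23 coated at […] overnight at 4 °C. Read-out is fluorogenic HRP signal from goat anti-hu-IgG1 detecting captured receptor.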

[2] = test system: IL-23 induced STAT3 signaling in HEK-Blue™ IL-23 cells; assay: IL-23 induced STAT3 signaling in HEK-Blue IL-23 cells (SEAP reporter); type: cell-based; conditions: human IL23 0.25 ng/ml, read-out: pSTAT3
Procedure, shortened: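 Secreted SEAP, read at OD 620-655 nm after 45 min QUANTI-Blue development, reports STAT3 activation. Beforehand, cells were exposed to peptide dilutions for 60 min at 37 °C and then to 0.25 ng/ml final human IL-23 overnight, at 10,000 cells/well.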

[3] = Solubility testing of peptides at different pH; type: physicochemical; conditions: target concentration 1 mg/ml, 2 hours agitation
Procedure, shortened: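 Four buffers were used: 50 mM HCl pH 1.2 and 50 mM phosphate at pH 6.5, 7.4 and 9.0, each receiving dried-down compound at a 1 mg/mL target. After 2 h gentle shaking and 0.45 μm filtration, UV peak areas were compared with a DMSO standard curve of known concentration, allowing for extinction coefficients.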

[4] = Chemical stability assessment of peptides (relative purity loss); type: physicochemical; conditions: 24 hours at 37° C.; for Chemical stability (relative purity loss) Buffer pH 1.2: 50 mM HCl pH 1.2 + acetonitrile (1:1); for Chemical stability (relative purity loss) Buffer pH 7.4: 50 mM phosphate buffer pH 7.4 + acetonitrile (1:1); for Chemical stability (relative purity loss) Buffer pH 6.5: 50 mM phosphate buffer pH 6.5 + acetonitrile (1:1)
Procedure, shortened: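 Peptide solutions at 1 mg/ml (purity-corrected) in 1:1 acetonitrile with 50 mM HCl pH 1.2, or 50 mM phosphate pH 6.5 or pH 7.4, held 24 hours at 2° C. and 37° C. Supernatants analysed by UHPLC-UV; relative purity loss taken as percent drop in peak-area purity from 0 to 24 hours at 37° C.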

Pepsin = test system: T2, Pepsin; assay: Protease stability in simulated gastric fluid (Pepsin-SGF, FaSSGF); type: in vitro ADME; conditions: simulated gastric fluid with pepsin (Pepsin-SGF), 60 min, 1 μM peptide, 37° C., read-out: FaSSGF 60 (min), remaining percent of peptide
T2 construct: purchased Merck Millipore
Procedure, shortened: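 LCMS/MS peak areas, normalised to the time-0 sample as 100%, give percent remaining. Conditions: 37° C incubation of 1 μM final peptide in simulated gastric fluid with pepsin; ethanol/0.1% HCOOH quench at 0, 60, 120, 240 min.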

Pancreatin = assay: Protease stability in simulated intestinal fluid (Pancreatin-SIF, FaSSIF); type: in vitro ADME; conditions: 1 μM peptide, 37° C.; for remaining at 1 h, 1 µM: 60 min, read-out: FaSSIF 60 (min), remaining percent of peptide; for remaining at 2 h, 1 µM: 120 min, read-out: FaSSIF 120 (min), remaining percent of peptide; for remaining at 4 h, 1 µM: 240 min, read-out: FaSSIF 240 (min), remaining percent of peptide
Procedure, shortened: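 LC-MS/MS peak areas at 0, 60, 120 and 240 min, normalised to time 0 as 100%, give percent remaining. Reactions used 1 μM final peptide at 37° C in pancreatin-SIF (1 mg pancreatin in 10 mL SIF concentrate) and were stopped with ethanol containing 0.1% HCOOH.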

[5] = 50 mM HCl buffer, 50 mM HCl pH 1.2, read-out: Solubility Buffer pH 1.2
[6] = 50 mM phosphate buffer pH 6.5, read-out: Solubility Buffer pH 6.5
[7] = 50 mM phosphate buffer pH 7.4, read-out: Solubility Buffer pH 7.4
[8] = 50 mM phosphate buffer pH 9.0, read-out: Solubility Buffer pH 9.0

IC50 [1] [nM]	solubility at 2 h [3, 5] [µg/mL]	solubility at 2 h [3, 6] [µg/mL]	solubility at 2 h [3, 7] [µg/mL]	Chemical stability (relative purity loss) Buffer pH 1.2 [4] [%]	Chemical stability (relative purity loss) Buffer pH 7.4 [4] [%]	remaining at 1 h, 1 µM (Pepsin) [%]	remaining at 1 h, 1 µM (Pancreatin) [%]	remaining at 2 h, 1 µM (Pancreatin) [%]	remaining at 4 h, 1 µM (Pancreatin) [%]	Chemical stability (relative purity loss) Buffer pH 6.5 [4] [%]	solubility at 2 h [3, 8] [µg/mL]	Structure (SMILES)	IC50 [2] [nM]
0.68	40 (≈ 24.1 µM)	30 (≈ 18 µM)	20 (≈ 12 µM)	27.4	3.1	1	78	77	51	–	–	COc1ccc(C[C@@H]2NC(=O)[C@@H]3CSSC[C@H](NC(=O)CCCCCNC(=O)C[C@@H](C(=O)N[C@@H](CC(N)=O)C(=O)N[C@@H](CC(N)=O)C(N)=O)NC(=O)C(C)(C)NC(=O)[C@H](Cc4ccc5ccccc5c4)NC2=O)C(=O)N(C)[C@@H](CC(N)=O)C(=O)N[C@@H]([C@@H](C)O)C(=O)N[C@@H](Cc2c[nH]c4ccccc24)C(=O)N[C@@H](CCC(N)=O)C(=O)N3)cc1 [compound 6] ([Ahx]C[NMeN]TWQCY(Me)[2Nal][Aib]DNN-NH2; disulfide 2-7; lactam N-11)	72.9
0.54	–	–	–	18.7	3.7	87	93	92	83	2.1	–	CC(=O)N[C@H]1CCCCNC(=O)[C@@H]2CSSC[C@H](NC(=O)[C@H](CCC(N)=O)NC(=O)[C@H](Cc3c[nH]c4ccccc34)NC1=O)C(=O)N[C@@H](Cc1ccc(OCCN(C)C)cc1)C(=O)N[C@@H](Cc1ccc3ccccc3c1)C(=O)NC1(CCOCC1)C(=O)N[C@H](C(=O)N[C@@H](CC(N)=O)C(=O)NCC(N)=O)CCC(=O)NCCCCC(=O)N2 [compound 30] (Ac-KWQCY(Me2NCH2CH2)[2Nal][Thp]ENG-NH2; linker 1-4-8 via X1)	5.41
0.6	100 (≈ 60.1 µM)	< 50	< 50	27.5	0.8	1	71	71	47	0.1	–	COc1ccc(C[C@@H]2NC(=O)[C@@H]3CSSC[C@H](NC(=O)CCCCCNC(=O)CC[C@@H](C(=O)N[C@@H](CC(N)=O)C(=O)N[C@@H](CC(N)=O)C(N)=O)NC(=O)C(C)(C)NC(=O)[C@H](Cc4ccc5ccccc5c4)NC2=O)C(=O)N[C@@H](CC(N)=O)C(=O)N[C@@H]([C@@H](C)O)C(=O)N[C@@H](Cc2c[nH]c4ccccc24)C(=O)N[C@@H](CCC(N)=O)C(=O)N3)cc1 [compound 2] ([Ahx]CNTWQCY(Me)[2Nal][Aib]ENN-NH2; disulfide 2-7; lactam N-11)	54
0.52	≥ 1630	≥ 1040	≥ 1290	–	–	94	94	94	88	–	≥ 1130	CC(=O)NCCCC[C@@H]1NC(=O)[C@H](Cc2c[nH]c3c(C)cccc23)NC(=O)[C@@H](NC(C)=O)CCCCNC(=O)[C@@H]2CSSC[C@H](NC1=O)C(=O)N[C@@H](Cc1ccc(OCCN(C)C)cc1)C(=O)N[C@@H](Cc1ccc3ccccc3c1)C(=O)NC1(CCOCC1)C(=O)N[C@H](C(=O)N[C@@H](CC(N)=O)C(=O)N[C@@H](Cc1cccnc1)C(=O)N(C)CC(N)=O)CCC(=O)NCCCCC(=O)N2 [compound 66] (Ac-K[Trp(7-Me)]K(Ac)CY(Me2NCH2CH2)[2Nal][Thp]EN[3Pal][Sar]-NH2; linker 1-4-8 via X1)	0.15
0.24	≥ 1090	≥ 1030	≥ 1090	–	–	77	98	97	97	–	–	CC(=O)NCCCC[C@@H]1NC(=O)[C@H](Cc2c[nH]c3ccccc23)NC(=O)[C@@H](NC(C)=O)CCCCNC(=O)[C@@H]2CSSC[C@H](NC1=O)C(=O)N[C@@H](Cc1ccc(OCCN(C)C)cc1)C(=O)N[C@H](Cc1ccc3ccccc3c1)C(=O)N[C@@](C)(CCCCN(C)C)C(=O)N[C@H](C(=O)N[C@@H](CC(N)=O)C(=O)N[C@@H](Cc1cccnc1)C(=O)N(C)CC(N)=O)CCC(=O)NCCCCC(=O)N2 [compound 59] (Ac-KWK(Ac)CY(Me2NCH2CH2)[d2Nal][αMeLys(Me2)]EN[3Pal][Sar]-NH2; linker 1-4-8 via X1)	0.07
0.24	≥ 990	≥ 1000	≥ 1020	–	–	92	97	91	82	–	≥ 1040	C[C@@H](O)[C@@H]1NC(=O)[C@H](CC(N)=O)NC(=O)[C@@H]2CSSC[C@H](NC(=O)[C@H](CCC(N)=O)NC(=O)[C@H](Cc3c[nH]c4ccccc34)NC1=O)C(=O)N[C@@H](Cc1ccc(OCCN(C)C)cc1)C(=O)N[C@H](Cc1ccc3ccccc3c1)C(=O)NC(C)(C)C(=O)N[C@H](C(=O)N[C@@H](CC(N)=O)C(=O)N[C@@H](CC(N)=O)C(N)=O)CCC(=O)NCCCCC(=O)N2 [compound 8]	5.54
0.21	≥ 1020	≥ 1000	≥ 930	–	–	68	99	91	91	–	–	CC(=O)NCCCC[C@@H]1NC(=O)[C@H](Cc2c[nH]c3c(C)cccc23)NC(=O)[C@@H](NC(C)=O)CCCCNC(=O)[C@@H]2CSSC[C@H](NC1=O)C(=O)N[C@@H](Cc1ccc(OCCN(C)C)cc1)C(=O)N[C@@H](Cc1ccc3ccccc3c1)C(=O)NC(C)(C)C(=O)N[C@H](C(=O)N[C@@H](CC(N)=O)C(=O)N[C@@H](Cc1c[nH]cn1)C(N)=O)CCC(=O)N(C)CCCCC(=O)N2 [compound 60] (Ac-K[Trp(7-Me)]K(Ac)CY(Me2NCH2CH2)[2Nal][Aib]ENH-NH2; linker 1-4-8 via X3)	0.16
0.57	≥ 1090	≥ 920	≥ 1030	–	–	86	90	76	77	–	–	CC(=O)NCCCC[C@@H]1NC(=O)[C@H](Cc2c[nH]c3c(C)cccc23)NC(=O)[C@H]([C@@H](C)O)NC(=O)[C@H](CC(N)=O)NC(=O)[C@@H]2CSSC[C@H](NC1=O)C(=O)N[C@@H](Cc1ccc(OCCN(C)C)cc1)C(=O)N[C@@H](Cc1ccc3ccccc3c1)C(=O)NC1(CCOCC1)C(=O)N[C@H](C(=O)N[C@@H](CO)C(=O)N[C@@H](Cc1cccnc1)C(=O)N(C)CC(N)=O)CCC(=O)NCCCCC(=O)N2 [compound 56] ([Ava]CNT[Trp(7-Me)]K(Ac)CY(Me2NCH2CH2)[2Nal][Thp]ES[3Pal][Sar]-NH2; disulfide 2-7; lactam N-11)	0.16
